Laboratory results published in patent US20190082696A1, “METHOD FOR CONTROLLING PESTS OF PLANTS” (BASF SE, priority 2016, published 2019).

Test system: green peach aphid (Myzus persicae)
Assay: Biological activity of mixtures: green peach aphid systemic test with Colby analysis
Format: in vivo
Details: 3 days
Description: Synergism can be described as an interaction where the combined effect of two or more compounds is greater than the sum of the individual effects of each of the compounds. The presence of a synergistic effect in terms of percent control, between two mixing partners (X and Y) can be calculated using the Colby equation (Colby, S. R., 1967, Calculating Synergistic and Antagonistic Responses in Herbicide Combinations, Weeds, 15, 20-22):
When the observed combined control effect is greater than the expected combined control effect (E), then the combined effect is synergistic.
The analysis of synergism or antagonism between the mixtures or compositions was determined using Colby's equation.
For evaluating control of green peach aphid (Myzus persicae) through systemic means the test unit consisted of 96-well-microtiter plates containing liquid artificial diet under an artificial membrane.
The compounds or mixtures were formulated using a solution containing 75% water and 25% DMSO. Different concentrations of formulated compounds or mixtures were pipetted into the aphid diet, using a custom built pipetter, at two replications. […]
After application, 5-8 adult aphids were placed on the artificial membrane inside the microtiter plate wells. […] Aphid mortality and fecundity was then visually assessed.

SMILES	Average Control % (10 ppm)	Average Control % (0.4 ppm)
CC1(C)C(C=C(Cl)Cl)C1C(=O)OC(C#N)c1cccc(Oc2ccccc2)c1 (centres unmarked) [Alphacypermethrin]	0%	–
CCC(=O)N1CC2(C1)OCc1cc(C3=NOC(c4cc(Cl)c(F)c(Cl)c4)(C(F)(F)F)C3)ccc12 (centres unmarked) [Compound I-1]	–	0%
